What was measured:
Format in all cases: biochemical
Lck = target: T1, Lck (Homo sapiens, UniProt P06239); experiment: Kinase inhibition assay (33P transfer), Lck; conditions: Table 3; read-out: Lck-1
T1 construct: Kinases are expressed as either kinase domains or full length constructs; made in house
How it was run: (§1)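 Activity was read as 33P incorporation, counted by liquid scintillation after a 0.5% phosphoric acid wash, into poly(Glu,Tyr) 4:1 or poly(Arg,Ser) 3:1 substrates coated on plates. Enzymes were tagged (GST or polyHis) kinase domains or full-length proteins from bacterial or insect-cell expression, sometimes with regulatory polypeptides.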

Lyn = target: T2, Lyn (Homo sapiens, UniProt P07948); experiment: Kinase inhibition assay (33P transfer), Lyn; conditions: Table 6, Lyn-1 kinase inhibition class
T2 construct: Kinases are expressed as either kinase domains or full length constructs; made in house
How it was run: (§2)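 Kinase domains or full-length enzymes, GST- or polyHis-tagged, were expressed in E. coli or baculovirus High Five cells and affinity-purified. Transfer of 33PO4 from ATP onto plate-bound poly(Glu,Tyr) 4:1 or poly(Arg,Ser) 3:1 was counted by liquid scintillation after a 0.5% phosphoric acid wash. IC50 = concentration halving incorporation.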

Zap-70 = target: T3, Zap-70 (Homo sapiens, UniProt P43403); experiment: Kinase inhibition assay (33P transfer), Zap-70; conditions: Table 3; read-out: Zap-1
T3 construct: Kinases are expressed as either kinase domains or full length constructs; made in house
T3 sequence (P43403 1-619): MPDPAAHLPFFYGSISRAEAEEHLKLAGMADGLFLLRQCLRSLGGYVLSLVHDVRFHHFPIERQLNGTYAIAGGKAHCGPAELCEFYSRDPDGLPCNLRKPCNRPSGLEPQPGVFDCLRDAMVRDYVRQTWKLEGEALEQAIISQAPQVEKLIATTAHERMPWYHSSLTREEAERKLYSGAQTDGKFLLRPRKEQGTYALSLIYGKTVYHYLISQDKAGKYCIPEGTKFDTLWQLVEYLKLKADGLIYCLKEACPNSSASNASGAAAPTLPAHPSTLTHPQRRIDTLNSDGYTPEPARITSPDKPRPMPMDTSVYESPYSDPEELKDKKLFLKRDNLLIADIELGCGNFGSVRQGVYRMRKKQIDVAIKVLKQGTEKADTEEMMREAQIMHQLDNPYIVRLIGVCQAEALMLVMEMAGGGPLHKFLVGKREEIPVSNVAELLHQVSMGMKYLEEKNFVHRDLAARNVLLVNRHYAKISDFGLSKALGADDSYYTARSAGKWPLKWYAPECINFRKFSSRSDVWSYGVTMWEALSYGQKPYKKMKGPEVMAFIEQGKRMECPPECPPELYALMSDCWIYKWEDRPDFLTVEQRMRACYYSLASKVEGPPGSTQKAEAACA
How it was run: as §1

ErbB2 = target: T4, ErbB2 (Homo sapiens, UniProt P04626); experiment: Kinase inhibition assay (33P transfer), ErbB2; conditions: read-out: ErbB2-2
T4 construct: Kinases are expressed as either kinase domains or full length constructs; made in house
How it was run: as §2

Kdr = target: T5, Kdr (Homo sapiens, UniProt P35968); experiment: Kinase inhibition assay (33P transfer), Kdr; conditions: Table 3; read-out: KDR-1
T5 construct: Kinases are expressed as either kinase domains or full length constructs; made in house
How it was run: as §1

Flt-1 = target: T6, Flt-1 (Homo sapiens, UniProt P17948); experiment: Kinase inhibition assay (33P transfer), Flt-1
T6 construct: Kinases are expressed as either kinase domains or full length constructs; made in house
How it was run: as §2

Tek = target: T7, Tek (Homo sapiens, UniProt Q02763); experiment: Kinase inhibition assay (33P transfer), Tek; conditions: read-out: Tek-1
T7 construct: Kinases are expressed as either kinase domains or full length constructs; made in house
How it was run: as §2

AKT = target: T8, AKT (Homo sapiens, UniProt Q9Y243); experiment: Kinase inhibition assay (33P transfer), AKT; conditions: Table 2, kinase inhibition class; read-out: AKT3-1
T8 construct: Kinases are expressed as either kinase domains or full length constructs; made in house
How it was run: as §1

PDGFRB = target: T9, PDGFRB (Homo sapiens, UniProt P09619); experiment: Kinase inhibition assay (33P transfer), PDGFRB; conditions: read-out: PDGFRB-1
T9 construct: Kinases are expressed as either kinase domains or full length constructs; made in house

Ret-1 = target: T10, Ret-1 (Homo sapiens, UniProt P07949); experiment: Kinase inhibition assay (33P transfer), Ret; conditions: Table 6, Ret-1 kinase inhibition class
T10 construct: Kinases are expressed as either kinase domains or full length constructs; made in house

FGFR1 = target: T11, FGFR1 (Homo sapiens, UniProt P11362); experiment: Kinase inhibition assay (33P transfer), FGFR1; conditions: read-out: FGFR1-1
T11 construct: Kinases are expressed as either kinase domains or full length constructs; made in house

T10 sequence (P07949 29-1114): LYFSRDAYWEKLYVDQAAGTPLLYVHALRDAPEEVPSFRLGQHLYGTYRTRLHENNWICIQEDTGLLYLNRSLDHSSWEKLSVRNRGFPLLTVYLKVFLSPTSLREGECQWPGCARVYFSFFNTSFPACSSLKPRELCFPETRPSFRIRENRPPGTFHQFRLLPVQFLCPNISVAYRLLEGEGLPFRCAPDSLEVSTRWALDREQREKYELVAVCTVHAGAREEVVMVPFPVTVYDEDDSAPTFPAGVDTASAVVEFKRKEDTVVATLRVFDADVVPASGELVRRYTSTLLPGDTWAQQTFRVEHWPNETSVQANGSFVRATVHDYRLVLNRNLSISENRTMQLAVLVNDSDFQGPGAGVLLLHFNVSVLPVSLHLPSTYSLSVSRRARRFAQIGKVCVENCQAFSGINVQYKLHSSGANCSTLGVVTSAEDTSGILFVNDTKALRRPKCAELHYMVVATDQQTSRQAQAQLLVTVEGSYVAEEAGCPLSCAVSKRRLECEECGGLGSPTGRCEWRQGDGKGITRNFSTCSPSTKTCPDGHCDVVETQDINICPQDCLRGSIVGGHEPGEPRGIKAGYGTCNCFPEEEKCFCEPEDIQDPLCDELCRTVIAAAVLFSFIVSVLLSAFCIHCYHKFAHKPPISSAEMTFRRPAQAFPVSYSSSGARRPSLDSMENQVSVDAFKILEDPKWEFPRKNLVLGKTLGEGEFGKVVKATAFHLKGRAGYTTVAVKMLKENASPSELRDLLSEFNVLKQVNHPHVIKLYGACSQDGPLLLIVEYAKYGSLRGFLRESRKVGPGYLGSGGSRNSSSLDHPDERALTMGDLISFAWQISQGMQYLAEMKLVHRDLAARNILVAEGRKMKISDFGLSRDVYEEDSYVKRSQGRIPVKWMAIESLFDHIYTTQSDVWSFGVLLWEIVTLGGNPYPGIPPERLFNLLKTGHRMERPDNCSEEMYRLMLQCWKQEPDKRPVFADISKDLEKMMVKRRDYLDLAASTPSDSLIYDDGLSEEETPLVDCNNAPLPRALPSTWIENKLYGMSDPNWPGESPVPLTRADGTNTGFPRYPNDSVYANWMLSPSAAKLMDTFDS
T7 sequence (Q02763 23-1124, species assumed): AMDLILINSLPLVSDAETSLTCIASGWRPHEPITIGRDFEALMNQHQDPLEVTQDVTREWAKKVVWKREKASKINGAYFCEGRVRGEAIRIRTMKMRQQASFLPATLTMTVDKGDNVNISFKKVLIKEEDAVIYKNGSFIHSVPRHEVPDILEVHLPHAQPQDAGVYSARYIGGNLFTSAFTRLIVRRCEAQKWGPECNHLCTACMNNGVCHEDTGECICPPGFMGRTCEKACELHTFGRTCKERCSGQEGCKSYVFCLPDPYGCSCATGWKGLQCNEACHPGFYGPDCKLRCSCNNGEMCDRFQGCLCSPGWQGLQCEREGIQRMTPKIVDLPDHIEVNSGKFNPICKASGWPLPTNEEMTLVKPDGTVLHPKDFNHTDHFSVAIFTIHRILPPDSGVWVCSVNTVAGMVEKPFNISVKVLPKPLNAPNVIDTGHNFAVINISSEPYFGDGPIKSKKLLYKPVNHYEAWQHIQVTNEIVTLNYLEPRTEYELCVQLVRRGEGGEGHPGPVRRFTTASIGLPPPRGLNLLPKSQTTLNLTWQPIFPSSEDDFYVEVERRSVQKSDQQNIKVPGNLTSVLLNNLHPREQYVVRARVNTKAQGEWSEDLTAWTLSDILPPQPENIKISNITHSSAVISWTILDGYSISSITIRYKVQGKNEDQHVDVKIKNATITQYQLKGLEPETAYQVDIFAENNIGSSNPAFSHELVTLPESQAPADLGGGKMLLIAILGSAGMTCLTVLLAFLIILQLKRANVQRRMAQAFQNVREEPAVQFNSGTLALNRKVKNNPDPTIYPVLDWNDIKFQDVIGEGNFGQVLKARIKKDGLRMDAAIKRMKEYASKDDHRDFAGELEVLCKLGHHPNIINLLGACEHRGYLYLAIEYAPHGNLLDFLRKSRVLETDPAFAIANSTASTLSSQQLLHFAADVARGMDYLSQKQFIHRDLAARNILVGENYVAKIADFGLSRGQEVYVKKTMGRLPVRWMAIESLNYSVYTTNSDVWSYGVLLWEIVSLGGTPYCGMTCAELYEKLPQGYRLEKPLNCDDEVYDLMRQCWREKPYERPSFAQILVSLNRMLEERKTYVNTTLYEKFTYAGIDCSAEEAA
T2 sequence (P07948 whole entry, species assumed, the tested form may be a part): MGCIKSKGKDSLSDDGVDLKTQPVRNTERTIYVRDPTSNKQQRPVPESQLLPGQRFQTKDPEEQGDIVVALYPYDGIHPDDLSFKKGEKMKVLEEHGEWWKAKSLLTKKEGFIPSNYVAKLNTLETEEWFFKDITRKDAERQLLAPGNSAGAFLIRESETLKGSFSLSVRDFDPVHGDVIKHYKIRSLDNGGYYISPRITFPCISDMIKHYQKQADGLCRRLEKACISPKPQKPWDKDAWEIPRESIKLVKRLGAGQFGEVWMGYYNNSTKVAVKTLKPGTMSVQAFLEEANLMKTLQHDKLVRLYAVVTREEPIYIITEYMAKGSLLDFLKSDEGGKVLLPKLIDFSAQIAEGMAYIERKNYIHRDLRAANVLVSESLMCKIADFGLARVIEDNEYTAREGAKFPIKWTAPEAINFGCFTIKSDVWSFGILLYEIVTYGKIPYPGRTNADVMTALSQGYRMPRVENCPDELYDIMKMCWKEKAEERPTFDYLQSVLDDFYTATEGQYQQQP
T5 sequence (P35968 20-1356, species assumed): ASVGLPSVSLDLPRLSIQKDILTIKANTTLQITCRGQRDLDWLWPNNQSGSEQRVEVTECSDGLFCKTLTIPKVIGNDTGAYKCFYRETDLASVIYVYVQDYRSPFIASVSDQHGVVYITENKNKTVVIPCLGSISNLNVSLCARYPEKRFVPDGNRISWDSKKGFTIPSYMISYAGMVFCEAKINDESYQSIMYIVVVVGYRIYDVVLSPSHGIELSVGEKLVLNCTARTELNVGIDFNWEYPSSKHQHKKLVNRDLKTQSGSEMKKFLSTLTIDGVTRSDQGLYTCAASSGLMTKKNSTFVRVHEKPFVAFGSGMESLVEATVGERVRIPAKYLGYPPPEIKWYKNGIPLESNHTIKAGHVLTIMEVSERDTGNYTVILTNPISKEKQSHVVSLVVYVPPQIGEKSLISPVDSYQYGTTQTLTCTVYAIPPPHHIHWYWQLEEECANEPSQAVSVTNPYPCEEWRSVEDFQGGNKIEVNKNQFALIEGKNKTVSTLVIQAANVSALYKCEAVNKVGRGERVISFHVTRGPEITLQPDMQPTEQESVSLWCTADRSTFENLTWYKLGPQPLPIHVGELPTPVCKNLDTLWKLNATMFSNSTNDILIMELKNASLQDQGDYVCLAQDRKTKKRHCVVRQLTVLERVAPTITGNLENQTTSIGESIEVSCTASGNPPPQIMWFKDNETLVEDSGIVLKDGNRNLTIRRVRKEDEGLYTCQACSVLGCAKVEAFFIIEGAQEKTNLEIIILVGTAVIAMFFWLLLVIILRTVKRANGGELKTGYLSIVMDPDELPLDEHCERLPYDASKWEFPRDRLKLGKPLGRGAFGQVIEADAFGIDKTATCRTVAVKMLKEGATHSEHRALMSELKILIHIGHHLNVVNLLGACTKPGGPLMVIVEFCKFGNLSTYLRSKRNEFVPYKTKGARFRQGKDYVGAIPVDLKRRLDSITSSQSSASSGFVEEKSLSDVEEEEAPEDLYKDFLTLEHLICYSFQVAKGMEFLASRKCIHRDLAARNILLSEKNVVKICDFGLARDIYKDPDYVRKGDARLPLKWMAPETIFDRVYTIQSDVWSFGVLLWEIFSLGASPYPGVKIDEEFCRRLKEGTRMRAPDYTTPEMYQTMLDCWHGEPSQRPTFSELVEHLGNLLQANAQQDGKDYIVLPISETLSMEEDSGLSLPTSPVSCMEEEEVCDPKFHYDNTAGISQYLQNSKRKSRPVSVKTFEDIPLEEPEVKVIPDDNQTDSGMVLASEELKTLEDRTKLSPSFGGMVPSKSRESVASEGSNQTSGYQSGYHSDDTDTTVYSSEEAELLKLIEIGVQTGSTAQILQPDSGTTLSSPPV
T1 sequence (P06239 whole entry, species assumed, the tested form may be a part): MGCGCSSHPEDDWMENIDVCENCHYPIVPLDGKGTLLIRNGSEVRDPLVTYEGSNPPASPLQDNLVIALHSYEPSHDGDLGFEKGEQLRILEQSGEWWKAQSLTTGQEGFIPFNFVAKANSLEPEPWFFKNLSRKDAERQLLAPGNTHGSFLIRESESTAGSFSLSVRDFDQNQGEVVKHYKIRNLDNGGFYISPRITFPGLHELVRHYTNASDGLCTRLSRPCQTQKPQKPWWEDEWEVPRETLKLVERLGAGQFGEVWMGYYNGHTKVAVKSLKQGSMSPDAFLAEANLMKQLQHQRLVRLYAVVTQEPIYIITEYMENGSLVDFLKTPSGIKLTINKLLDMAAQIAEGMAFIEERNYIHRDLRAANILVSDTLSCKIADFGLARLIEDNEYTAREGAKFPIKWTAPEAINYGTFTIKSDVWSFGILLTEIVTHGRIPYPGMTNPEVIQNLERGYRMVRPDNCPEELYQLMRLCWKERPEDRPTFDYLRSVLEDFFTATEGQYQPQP
T8 sequence (Q9Y243 whole entry, the tested form may be a part): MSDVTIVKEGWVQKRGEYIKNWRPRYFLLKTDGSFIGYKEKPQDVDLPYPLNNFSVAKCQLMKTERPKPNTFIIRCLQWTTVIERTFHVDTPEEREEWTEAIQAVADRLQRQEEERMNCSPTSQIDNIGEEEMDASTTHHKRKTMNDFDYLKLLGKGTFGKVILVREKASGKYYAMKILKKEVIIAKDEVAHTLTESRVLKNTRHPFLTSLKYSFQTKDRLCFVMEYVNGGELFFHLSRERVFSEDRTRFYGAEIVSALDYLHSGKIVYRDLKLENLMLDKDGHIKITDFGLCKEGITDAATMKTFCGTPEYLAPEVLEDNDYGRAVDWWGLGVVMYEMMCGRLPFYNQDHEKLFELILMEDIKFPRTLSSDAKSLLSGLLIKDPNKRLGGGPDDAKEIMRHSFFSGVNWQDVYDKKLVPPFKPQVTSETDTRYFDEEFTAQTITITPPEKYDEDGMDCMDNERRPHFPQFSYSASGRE

Compound | IC50 (Lck) | IC50 (Lyn) | IC50 (Zap-70) | IC50 (ErbB2) | IC50 (Kdr) | IC50 (Flt-1) | IC50 (Tek) | IC50 (AKT) | IC50 (PDGFRB) | IC50 (Ret-1) | IC50 (FGFR1)
COc1cc(Nc2ncnc(Nc3ccc(C(=O)O)cc3)n2)cc(OC)c1OC [Compound 104] | 6.04 to 8.81 µM | > 11.3 µM | > 11.3 µM | 1.01 to 6.04 µM | 1.01 to 6.04 µM | 1.01 to 6.04 µM | > 11.3 µM | > 11.3 µM | 1.01 to 6.04 µM | > 11.3 µM | > 11.3 µM
COC(=O)c1sccc1Nc1ncnc(Nc2cc(OC)c(OC)c(OC)c2)n1 [Compound 315] | 8.38 to 10.8 µM | > 10.8 µM | 8.38 to 10.8 µM | – | < 0.958 µM | > 10.8 µM | > 10.8 µM | > 10.8 µM | 0.958 to 5.75 µM | > 10.8 µM | > 10.8 µM
COc1cc(Nc2ncnc(Nc3cc(F)ccc3F)n2)cc(OC)c1OC [Compound 316] | > 11.6 µM | 1.03 to 6.16 µM | > 11.6 µM | – | < 1.03 µM | 8.99 to 11.6 µM | > 11.6 µM | > 11.6 µM | < 1.03 µM | 1.03 to 6.16 µM | > 11.6 µM
COc1cc(Nc2ncnc(Nc3cc(-c4cccs4)n[nH]3)n2)cc(OC)c1OC [Compound 318] | 0.94 to 5.64 µM | < 0.94 µM | > 10.6 µM | – | < 0.94 µM | < 0.94 µM | 5.64 to 8.23 µM | 8.23 to 10.6 µM | < 0.94 µM | < 0.94 µM | 0.94 to 5.64 µM
COc1cc(Nc2ncnc(N(CC(=O)O)c3ccc4c(c3)OCO4)n2)cc(OC)c1OC [Compound 319] | > 9.88 µM | > 9.88 µM | > 9.88 µM | – | > 9.88 µM | > 9.88 µM | > 9.88 µM | > 9.88 µM | > 9.88 µM | > 9.88 µM | > 9.88 µM
COc1ccc(Nc2ncnc(N(CC(=O)O)c3ccc4c(c3)OCO4)n2)cc1OC [Compound 320] | 5.64 to 8.23 µM | > 10.6 µM | 8.23 to 10.6 µM | – | 5.64 to 8.23 µM | > 10.6 µM | > 10.6 µM | > 10.6 µM | > 10.6 µM | > 10.6 µM | > 10.6 µM
COc1cc(Nc2ncnc(-n3cc(C)c4ccccc43)n2)cc(OC)c1OC [Compound 323] | 8.94 to 11.5 µM | > 11.5 µM | 8.94 to 11.5 µM | – | < 1.02 µM | 6.13 to 8.94 µM | > 11.5 µM | > 11.5 µM | < 1.02 µM | > 11.5 µM | > 11.5 µM
COc1cc(Nc2ncnc(-n3c(N)nc4ccccc43)n2)ccc1OCCn1ccnn1 [Compound 324] | > 10.1 µM | > 10.1 µM | > 10.1 µM | – | < 0.9 µM | < 0.9 µM | 0.9 to 5.4 µM | > 10.1 µM | > 10.1 µM | < 0.9 µM | < 0.9 µM
COc1cc(Nc2ncnc(-n3c(=O)[nH]c4ccccc43)n2)cc(OC)c1OC [Compound 325] | > 11.4 µM | 8.87 to 11.4 µM | > 11.4 µM | – | < 1.01 µM | < 1.01 µM | > 11.4 µM | > 11.4 µM | < 1.01 µM | > 11.4 µM | > 11.4 µM
COCCOc1ccc(Nc2ncnc(Nc3cc(-c4ccco4)n[nH]3)n2)cc1OCCOC [Compound 328] | 0.856 to 5.13 µM | 0.856 to 5.13 µM | > 9.63 µM | – | < 0.856 µM | < 0.856 µM | 5.13 to 7.49 µM | 5.13 to 7.49 µM | 0.856 to 5.13 µM | 0.856 to 5.13 µM | 0.856 to 5.13 µM

Other lines, results leading:

IC50 (Lck) | IC50 (Lyn) | IC50 (Zap-70) | IC50 (ErbB2) | IC50 (Kdr) | IC50 (Flt-1) | IC50 (Tek) | IC50 (AKT) | IC50 (PDGFRB) | IC50 (Ret-1) | IC50 (FGFR1) | Compound
8.04 to 10.3 µM | > 10.3 µM | > 10.3 µM | – | 0.919 to 5.51 µM | 0.919 to 5.51 µM | > 10.3 µM | 5.51 to 8.04 µM | 0.919 to 5.51 µM | 0.919 to 5.51 µM | 0.919 to 5.51 µM | COc1cc(Nc2ncnc(-n3c(NC(C)=O)nc4ccccc43)n2)cc(OC)c1OC [Compound 334]
0.852 to 5.11 µM | 0.852 to 5.11 µM | > 9.58 µM | – | < 0.852 µM | 0.852 to 5.11 µM | > 9.58 µM | > 9.58 µM | 7.45 to 9.58 µM | < 0.852 µM | 7.45 to 9.58 µM | COc1cc(Nc2ncnc(N(c3ccccc3)c3nc4ccccc4[nH]3)n2)cc(OC)c1OC [Compound 335]
1.05 to 6.33 µM | 1.05 to 6.33 µM | > 11.9 µM | – | < 1.05 µM | < 1.05 µM | > 11.9 µM | > 11.9 µM | 1.05 to 6.33 µM | < 1.05 µM | < 1.05 µM | COc1ccc(Nc2ncnc(Nc3cc(-c4ccco4)n[nH]3)n2)cc1OC [Compound 337]
> 9.14 µM | > 9.14 µM | > 9.14 µM | – | < 0.812 µM | > 9.14 µM | > 9.14 µM | > 9.14 µM | < 0.812 µM | < 0.812 µM | > 9.14 µM | COc1ccc2c(c1)c(CCNC(C)=O)cn2-c1ncnc(Nc2cc(OC)c(OC)c(OC)c2)n1 [Compound 339]
0.989 to 5.93 µM | 0.989 to 5.93 µM | > 11.1 µM | – | < 0.989 µM | < 0.989 µM | 8.65 to 11.1 µM | 5.93 to 8.65 µM | 8.65 to 11.1 µM | < 0.989 µM | 0.989 to 5.93 µM | c1coc(-c2cc(Nc3ncnc(Nc4ccc(N5CCOCC5)cc4)n3)[nH]n2)c1 [Compound 340]
1.1 to 6.62 µM | 1.1 to 6.62 µM | > 12.4 µM | – | < 1.1 µM | < 1.1 µM | > 12.4 µM | > 12.4 µM | 1.1 to 6.62 µM | < 1.1 µM | < 1.1 µM | NC(=O)c1cccc(Nc2ncnc(Nc3cc(-c4ccco4)n[nH]3)n2)c1 [Compound 342]
< 1.02 µM | < 1.02 µM | > 11.4 µM | – | < 1.02 µM | < 1.02 µM | 8.9 to 11.4 µM | > 11.4 µM | < 1.02 µM | < 1.02 µM | < 1.02 µM | COc1cc(Nc2ncnc(N3CCCc4ccccc43)n2)cc(OC)c1OC [Compound 609]
0.843 to 5.06 µM | < 0.843 µM | 5.06 to 7.38 µM | – | < 0.843 µM | 5.06 to 7.38 µM | 0.843 to 5.06 µM | 0.843 to 5.06 µM | 0.843 to 5.06 µM | 0.843 to 5.06 µM | 0.843 to 5.06 µM | COc1ccc(Nc2ccc(Nc3ncnc(Nc4cc(OC)c(OC)c(OC)c4)n3)cc2)cc1 [Compound 922]
1.04 to 6.23 µM | < 1.04 µM | > 11.7 µM | – | < 1.04 µM | 9.08 to 11.7 µM | > 11.7 µM | > 11.7 µM | < 1.04 µM | < 1.04 µM | > 11.7 µM | COc1cc(Nc2ncnc(Nc3ccc(C)cc3F)n2)cc(OC)c1OC [Compound 937]
> 11 µM | > 11 µM | > 11 µM | – | < 0.982 µM | 0.982 to 5.89 µM | > 11 µM | > 11 µM | 0.982 to 5.89 µM | > 11 µM | 0.982 to 5.89 µM | COc1cc(Nc2ncnc(Nc3nc4ccccc4n3C)n2)cc(OC)c1OC [Compound 938]
> 13.3 µM | > 13.3 µM | > 13.3 µM | – | < 1.18 µM | 7.09 to 10.3 µM | > 13.3 µM | > 13.3 µM | 7.09 to 10.3 µM | > 13.3 µM | > 13.3 µM | COc1cc(Nc2ncnc(-c3ccccc3)n2)cc(OC)c1OC [Compound 970]
5.06 to 7.38 µM | 5.06 to 7.38 µM | > 9.49 µM | – | 0.844 to 5.06 µM | > 9.49 µM | > 9.49 µM | > 9.49 µM | > 9.49 µM | > 9.49 µM | 5.06 to 7.38 µM | COc1ccc(Nc2ncnc(N(C/C=C/c3ccccc3)c3ccc(Cl)cc3)n2)cc1OC [Compound 974]

Source: patent US7074789B2, “Kinase inhibitors” (Amgen Inc., priority 1999, dated 2006)
